The source of these data is ChEMBL document CHEMBL1777803, “Synthesis and SAR study of tricyclic sulfones as γ-secretase inhibitors: C-6 and C-8 positions” (Bioorg Med Chem Lett, 2011).

One series is described as follows: nhibition of gamma secretase-mediated Abeta40 production by cell based assay.
Details: not given
For the compound `O=S(=O)(N[C@@H]1CC[C@@]2(S(=O)(=O)c3ccc(Cl)cc3)c3c(F)ccc(F)c3OC[C@@]2(O)C1)C(F)(F)F`, the IC50 (in general, the concentration that gives 50% inhibition) stood at 11 nM.
On the same count and under the same terms, the result for `O=S(=O)(N[C@@H]1CC[C@@]2(S(=O)(=O)c3ccc(Cl)cc3)c3c(F)ccc(F)c3OC[C@@]2(O)C1)C1CC1` reads 3 nM; that for `O=S(=O)(N[C@@H]1CC[C@@]2(S(=O)(=O)c3ccc(C(F)(F)F)cc3)c3c(F)ccc(F)c3OC[C@@]2(O)C1)C(F)(F)F`, 80 nM.

The next series in a line: nhibition of gamma secretase-mediated Abeta42 production by cell based assay.
Details: not given
With `O=S(=O)(N[C@@H]1CC[C@@]2(S(=O)(=O)c3ccc(Cl)cc3)c3c(F)ccc(F)c3OC[C@@]2(O)C1)C(F)(F)F`, the IC50 was 33 nM.
Still for that read-out and setting: the result for `O=S(=O)(N[C@@H]1CC[C@@]2(S(=O)(=O)c3ccc(Cl)cc3)c3c(F)ccc(F)c3OC[C@@]2(O)C1)C1CC1` reads 9 nM.
In the case of `O=S(=O)(N[C@@H]1CC[C@@]2(S(=O)(=O)c3ccc(C(F)(F)F)cc3)c3c(F)ccc(F)c3OC[C@@]2(O)C1)C(F)(F)F`, the IC50 came to 51 nM.

A short description of a further series: Dissociation constant, pKa of the compound in DMSO. The class given is physicochemical.
Details: not given
In turn, `CS(N)(=O)=O` [METHANESULFONAMIDE] registered a pKa of 17.5.

The series is the same for the next values; noted with them: DMSO; read-out: pKa.
Consider `NS(=O)(=O)C(F)(F)F` [TRIFLUOROMETHANESULFONAMIDE], for which the pKa was found to be 9.7.

The next series can be described thus: Inhibition of gamma secretase-mediated Abeta40 production.
Details: not given
For the compound `O=S(=O)(N[C@@H]1CC[C@@]2(S(=O)(=O)c3ccc(Cl)cc3)c3c(F)ccc(F)c3OC[C@H]2C1)C(F)(F)F`, the midpoint of inhibition, the IC50, lay at 27 nM.
As to `O=S(=O)(NCCO[C@]12CCCC[C@@]1(S(=O)(=O)c1ccc(Cl)cc1)c1c(F)ccc(F)c1OC2)C(F)(F)F`, half-maximal inhibition (IC50) was put at 295 nM. This IC50 lies about 11-fold higher than the previous one.
For the compound `CCSCCO[C@]12CCCC[C@@]1(S(=O)(=O)c1ccc(Cl)cc1)c1c(F)ccc(F)c1OC2`, the IC50 stood at 170 nM.
Same read-out and setting: the result for `CCS(=O)(=O)CCO[C@]12CCCC[C@@]1(S(=O)(=O)c1ccc(Cl)cc1)c1c(F)ccc(F)c1OC2` reads 15 nM; that for `CC(C)SCCO[C@]12CCCC[C@@]1(S(=O)(=O)c1ccc(Cl)cc1)c1c(F)ccc(F)c1OC2`, 180 nM.
`CC(C)S(=O)(=O)CCO[C@]12CCCC[C@@]1(S(=O)(=O)c1ccc(Cl)cc1)c1c(F)ccc(F)c1OC2` came in with an IC50 of 8 nM.
`CS(=O)(=O)CCO[C@]12CCCC[C@@]1(S(=O)(=O)c1ccc(Cl)cc1)c1c(F)ccc(F)c1OC2`: the IC50 stood at 9 nM.
On the same count and under the same terms, the result for `CNS(=O)(=O)CCO[C@]12CCCC[C@@]1(S(=O)(=O)c1ccc(Cl)cc1)c1c(F)ccc(F)c1OC2` reads 37 nM.
`CN(C)S(=O)(=O)CCO[C@]12CCCC[C@@]1(S(=O)(=O)c1ccc(Cl)cc1)c1c(F)ccc(F)c1OC2` had an IC50 of 50 nM.
Turning to `NCCO[C@]12CCCC[C@@]1(S(=O)(=O)c1ccc(Cl)cc1)c1c(F)ccc(F)c1OC2`, the IC50 came to 12 nM.
Compound `CNCCO[C@]12CCCC[C@@]1(S(=O)(=O)c1ccc(Cl)cc1)c1c(F)ccc(F)c1OC2` yielded an IC50 of 40 nM.
With `CN(C)CCO[C@]12CCCC[C@@]1(S(=O)(=O)c1ccc(Cl)cc1)c1c(F)ccc(F)c1OC2`, it took 31 nM to reach half-maximal inhibition (IC50). This IC50 and that of the compound before are within 1.5-fold of each other.
`CS(=O)(=O)NCCO[C@]12CCCC[C@@]1(S(=O)(=O)c1ccc(Cl)cc1)c1c(F)ccc(F)c1OC2` gave an IC50 of 26 nM.
Take `O=S(=O)(c1ccc(Cl)cc1)[C@@]12CCC3(C[C@]1(O)COc1c(F)ccc(F)c12)OCCO3`: the IC50 came out at 2900 nM.
Compound `O=C1CC[C@@]2(S(=O)(=O)c3ccc(Cl)cc3)c3c(F)ccc(F)c3OC[C@@]2(O)C1` yielded an IC50 of 21 nM.
`O=S(=O)(N[C@@H]1CC[C@@]2(S(=O)(=O)c3ccc(Cl)cc3)c3c(F)ccc(F)c3OC[C@@]2(O)C1)C(F)(F)F` gave an IC50 of 21 nM.
On the same count and under the same terms, the result for `O=C1CC[C@@]2(S(=O)(=O)c3ccc(Cl)cc3)c3c(F)ccc(F)c3OC[C@]2(O)C1` reads 3000 nM.
For `O=S(=O)(c1ccc(Cl)cc1)[C@@]12CC[C@H](O)C[C@]1(O)COc1c(F)ccc(F)c12`, the IC50 was determined as 363 nM.
In the case of `O=S(=O)(c1ccc(Cl)cc1)[C@@]12CC[C@@H](O)C[C@]1(O)COc1c(F)ccc(F)c12`, inhibition was half-maximal at 28 nM (IC50).
Regarding `O=C1CC[C@@]2(S(=O)(=O)c3ccc(C(F)(F)F)cc3)c3c(F)ccc(F)c3OC[C@@]2(O)C1`, half-maximal inhibition (IC50) required 53 nM.
As for `O=S(=O)(c1ccc(C(F)(F)F)cc1)[C@@]12CC[C@@H](O)C[C@]1(O)COc1c(F)ccc(F)c12`, the IC50 was 136 nM.
For the compound `O=C1CC[C@@]2(S(=O)(=O)c3ccc(Cl)cc3)c3c(F)ccc(F)c3OC[C@H]2C1`, inhibition was half-maximal at 13 nM (IC50). Compared with the last compound, the IC50 is about 10-fold lower.
Same read-out and setting: the result for `O=S(=O)(c1ccc(Cl)cc1)[C@@]12CCCC[C@@H]1COc1c(F)ccc(F)c12` reads 22 nM.
As to `CCS(=O)(=O)CCO[C@@]12COc3c(F)ccc(F)c3[C@]1(S(=O)(=O)c1ccc(Cl)cc1)CCC1(C2)OCCO1`, the half-inhibitory concentration (IC50) came out at 1300 nM.
Compound `CCS(=O)(=O)CCO[C@@]12COc3c(F)ccc(F)c3[C@]1(S(=O)(=O)c1ccc(Cl)cc1)CCC(=O)C2` yielded an IC50 of 160 nM. This IC50 is about 8.1-fold lower than that of the compound before.
`CCS(=O)(=O)CCO[C@@]12COc3c(F)ccc(F)c3[C@]1(S(=O)(=O)c1ccc(Cl)cc1)CC[C@@H](O)C2` showed an IC50 of 87 nM.
As for `CC(C)S(=O)(=O)CCO[C@@]12COc3c(F)ccc(F)c3[C@]1(S(=O)(=O)c1ccc(Cl)cc1)CCC1(C2)OCCO1`, the IC50 was found to be 940 nM.
Still for that read-out and setting: the result for `CC(C)S(=O)(=O)CCO[C@@]12COc3c(F)ccc(F)c3[C@]1(S(=O)(=O)c1ccc(Cl)cc1)CCC(=O)C2` reads 130 nM; that for `CC(C)S(=O)(=O)CCO[C@@]12COc3c(F)ccc(F)c3[C@]1(S(=O)(=O)c1ccc(Cl)cc1)CC[C@@H](O)C2`, 52 nM.
For `O=S(=O)(N[C@@H]1CC[C@@]2(S(=O)(=O)c3ccc(Cl)cc3)c3c(F)ccc(F)c3OC[C@@]2(O)C1)C(F)F`, the IC50 turned out to be 68 nM.
Compound `O=S(=O)(CF)N[C@@H]1CC[C@@]2(S(=O)(=O)c3ccc(Cl)cc3)c3c(F)ccc(F)c3OC[C@@]2(O)C1` returned a concentration for half-maximal inhibition (IC50) of 164 nM.
The same measure, in the same setting: as for `O=S(=O)(N[C@@H]1CC[C@@]2(S(=O)(=O)c3ccc(Cl)cc3)c3c(F)ccc(F)c3OC[C@@]2(O)C1)C1CC1`, the figure is 29 nM; as for `O=S(=O)(N[C@@H]1CC[C@@]2(S(=O)(=O)c3ccc(Cl)cc3)c3c(F)ccc(F)c3OC[C@@]2(O)C1)C1CCC1`, 212 nM; as for `O=S(=O)(N[C@@H]1CC[C@@]2(S(=O)(=O)c3ccc(C(F)(F)F)cc3)c3c(F)ccc(F)c3OC[C@@]2(O)C1)C(F)(F)F`, 23 nM.
Take `O=S(=O)(N[C@@H]1CC[C@@]2(S(=O)(=O)c3ccc(C(F)(F)F)cc3)c3c(F)ccc(F)c3OC[C@@]2(O)C1)C1CC1`: 173 nM corresponded to half-maximal inhibition (IC50).
Compound `O=S(=O)(NCCO[C@@]12COc3c(F)ccc(F)c3[C@]1(S(=O)(=O)c1ccc(Cl)cc1)CC[C@@H](O)C2)C(F)(F)F` returned an IC50 of 4100 nM.
